For 1 compound, IC50, EC50 and CC50 results are on record in publication PMC5740381 (Antimicrobial Agents and Chemotherapy, 2017).

For one data set, the target named is HCV NS3/4A protease GT1b (Hepatitis C virus genotype 1b, UniProt Q9WPH5). Briefly: HCV NS3/4A protease biochemical assay. Conditions: 30 min preincubation, read-out: Mean IC50 ± SD. From the text: (§1) . […] Genes encoding NS3/4A were derived from laboratory strains 1a-H77 (GenBank accession number NC_004102) and 1b-N (GenBank accession number AF139594) or from clinical samples from patients infected with genotype 2a, 2b, 3a, or 4a. All patients provided written informed consent. Clinical studies were designed according to Good Clinical Practice guidelines, the Declaration of Helsinki, and applicable local regulations, with independent ethics committee or institutional review board approval for all study sites. The genotype 5a NS3/4A gene sequence was synthetically constructed based on the sequence of the clinical isolate SA13 (GenBank accession number AF064490) ([48]), whereas the genotype 6a NS3/4A gene sequence was synthetically constructed based on a consensus sequence derived from the alignment of 15 genotype 6a sequences available in GenBank. The NS3/4A genes were each cloned into the protein expression vector pET14b (Novagen, Madison, WI), and a clone with an NS3/4A protease sequence that matched the consensus sequence for each sample was subsequently selected for protein expression and purification. Protease activity was measured by continuous monitoring of the fluorescence change associated with the cleavage of a fluorogenic depsipeptide (EDANS/DABCYL) substrate using a purified recombinant HCV NS3/4A protease as described previously ([49]). […]

Another data set deals with HCV NS3/4A protease GT2b (Hepatitis C virus genotype 2b, UniProt P26661). Briefly: HCV NS3/4A protease biochemical assay. Conditions: 30 min preincubation, read-out: Mean IC50 ± SD.
Excerpt: as §1

A further data set deals with HCV NS3/4A protease GT6a (Hepatitis C virus genotype 6a, UniProt O39927). Briefly: HCV NS3/4A protease biochemical assay. To be noted: 30 min preincubation, read-out: Mean IC50 ± SD.
Excerpt: as §1

A further data set concerns HBV. Nature of the data set: Anti-HBV assay, extracellular HBV DNA by quantitative PCR. It counts as cell-based. Conditions: Hepatitis B virus, read-out: Mean EC50 ± SD.
A short description of another data set: MTT cytotoxicity assay. Conditions: human. How it is done:
For MT4 cells, 10,000 cells/well were plated immediately before the addition of glecaprevir. The rest of the assay was performed as described previously ([33]).

Several values for one entry are separate records, joined by “and”; a condition that tells them apart may be missing. Equal entries are not always repeated. Some results are limits rather than exact numbers.

With `CC(C)(C)[C@@H]1NC(=O)O[C@@H]2CCC[C@H]2OC/C=C/C(F)(F)c2nc3ccccc3nc2O[C@@H]2C[C@@H](C(=O)N[C@]3(C(=O)NS(=O)(=O)C4(C)CC4)C[C@H]3C(F)F)N(C2)C1=O` [Glecaprevir, (3aR,7S,10S,12R,21E,24aR)-7-tert-butyl-N-[(1R,2R)-2-(difluoromethyl)-1-{[(1-methylcyclopropyl)sulfonyl]carbamoyl}cyclopropyl]-20,20-difluoro-5,8-dioxo-2,3,3a,5,6,7,8,11,12,20,23,24a-dodecahydro-1H,10H-9,12-methanocyclopenta[18,19][1,10,17,3,6]trioxadiazacyclononadecino[11,12-b]quinoxaline-10-carboxamide], the values for the 50% inhibitory concentration (IC50) at HCV NS3/4A protease GT1b, at HCV NS3/4A protease GT2b and at HCV NS3/4A protease GT6a were 8.9 ± 1.6 nM, 3.8 ± 0.96 nM and 11.3 ± 1.8 nM, respectively. Also, the EC50 with HBV is > 32000 nM. Besides, the 50% cytotoxic concentration (CC50) in “MTT cytotoxicity assay” is 72 µM and 60 µg/mL.

One may read the IC50 as the midpoint of a concentration-inhibition curve. One may read the EC50 as the concentration needed to bring the measured effect to its halfway point. As usually defined, the CC50 is the concentration giving 50% cytotoxicity.
